Active and inactive are the calls of the source. No cut-off for these calls is given here.
Assays:
[1] = Oral bioavailability in rat at 2 mg/kg; type: ADME, organism-based; details: in vivo
[2] = target: T1, Free fatty acid receptor 1 (Homo sapiens, UniProt O14842); assay: Agonist activity at human GPR40 expressed in mouse A9 cells by inositol phosphate accumulation assay; type: functional, cell-based
[3] = Mean residence time in rat; type: ADME, organism-based; details: in vivo
[4] = Volume of distribution at steady state in rat; type: ADME, organism-based; details: in vivo, read-out: Vdss
[5] = target: T1, Free fatty acid receptor 1; assay: Agonist activity at human GPR40 expressed in CHO cells by aequorin assay; type: cell-based
[6] = Clearance in rat at 0.5 mg/kg, iv; type: ADME, organism-based; set-up: dose 0.5 mg/kg, route intravenous; details: in vivo
Islets of langerhans = assay: Induction of insulin secretion in human GPR40 knock-in mouse pancreatic islets
Plasma = assay: […] in mouse plasma at 1 mg/kg, po; type: ADME, organism-based; set-up: dose 1 mg/kg, route oral; details: in vivo
Mus musculus [7] = assay: Antidiabetic activity in human GPR40 knock-in mouse assessed as reduction in blood glucose level at 10 mg/kg, po administered via gavage 1 hr before glucose challenge by oral glucose tolerance test; type: functional, organism-based; set-up: dose 10 mg/kg
[8] = Ratio of drug level in brain to plasma in rat at 5 mg/kg, po after 3 hrs; type: ADME, organism-based; set-up: dose 5 mg/kg, route oral; details: brain and plasma, read-out: BPR
[9] = Half life in cynomolgus monkey; type: ADME, organism-based, Macaca fascicularis; details: in vivo
[10] = Oral bioavailability in dog at 2 mg/kg; type: ADME, organism-based, Canis lupus familiaris; details: in vivo
[11] = Plasma concentration in mouse at 1 mg/kg, po measured for 4 hrs; type: ADME, organism-based; set-up: dose 1 mg/kg, route oral
[12] = Volume of distribution at steady state in cynomolgus monkey; type: ADME, organism-based, Macaca fascicularis; details: in vivo, read-out: Vdss
[13] = Oral bioavailability in cynomolgus monkey at 2 mg/kg; type: ADME, organism-based, Macaca fascicularis; details: in vivo
[14] = Half life in dog; type: ADME, organism-based, Canis lupus familiaris; details: in vivo
[15] = Volume of distribution at steady state in dog; type: ADME, organism-based, Canis lupus familiaris; details: in vivo, read-out: Vdss
[16] = Half life in rat; type: ADME, organism-based; details: in vivo
[17] = Inhibition of CYP450 (unknown origin); type: ADME; details: human
[18] = target: Voltage-gated inwardly rectifying potassium channel KCNH2 (Homo sapiens, UniProt Q12809); assay: Inhibition of human ERG
Mus musculus [19] = assay: Antidiabetic activity in human GPR40 knock-in mouse assessed as reduction in glucose AUC at 10 mg/kg, po administered via gavage 1 hr before glucose challenge by oral glucose tolerance test; type: functional
[20] = Induction of CYP450 (unknown origin); type: ADME; details: human

T1 sequence (O14842 whole entry): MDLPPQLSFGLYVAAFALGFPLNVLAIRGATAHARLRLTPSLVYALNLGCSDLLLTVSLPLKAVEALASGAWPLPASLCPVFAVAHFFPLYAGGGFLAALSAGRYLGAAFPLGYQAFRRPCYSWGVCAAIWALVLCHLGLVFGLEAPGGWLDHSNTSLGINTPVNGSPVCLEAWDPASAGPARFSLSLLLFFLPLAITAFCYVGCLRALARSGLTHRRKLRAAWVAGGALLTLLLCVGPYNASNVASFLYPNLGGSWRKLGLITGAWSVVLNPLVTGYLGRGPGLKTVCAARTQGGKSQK
Voltage-gated inwardly rectifying potassium channel KCNH2, sequence (Q12809 whole entry): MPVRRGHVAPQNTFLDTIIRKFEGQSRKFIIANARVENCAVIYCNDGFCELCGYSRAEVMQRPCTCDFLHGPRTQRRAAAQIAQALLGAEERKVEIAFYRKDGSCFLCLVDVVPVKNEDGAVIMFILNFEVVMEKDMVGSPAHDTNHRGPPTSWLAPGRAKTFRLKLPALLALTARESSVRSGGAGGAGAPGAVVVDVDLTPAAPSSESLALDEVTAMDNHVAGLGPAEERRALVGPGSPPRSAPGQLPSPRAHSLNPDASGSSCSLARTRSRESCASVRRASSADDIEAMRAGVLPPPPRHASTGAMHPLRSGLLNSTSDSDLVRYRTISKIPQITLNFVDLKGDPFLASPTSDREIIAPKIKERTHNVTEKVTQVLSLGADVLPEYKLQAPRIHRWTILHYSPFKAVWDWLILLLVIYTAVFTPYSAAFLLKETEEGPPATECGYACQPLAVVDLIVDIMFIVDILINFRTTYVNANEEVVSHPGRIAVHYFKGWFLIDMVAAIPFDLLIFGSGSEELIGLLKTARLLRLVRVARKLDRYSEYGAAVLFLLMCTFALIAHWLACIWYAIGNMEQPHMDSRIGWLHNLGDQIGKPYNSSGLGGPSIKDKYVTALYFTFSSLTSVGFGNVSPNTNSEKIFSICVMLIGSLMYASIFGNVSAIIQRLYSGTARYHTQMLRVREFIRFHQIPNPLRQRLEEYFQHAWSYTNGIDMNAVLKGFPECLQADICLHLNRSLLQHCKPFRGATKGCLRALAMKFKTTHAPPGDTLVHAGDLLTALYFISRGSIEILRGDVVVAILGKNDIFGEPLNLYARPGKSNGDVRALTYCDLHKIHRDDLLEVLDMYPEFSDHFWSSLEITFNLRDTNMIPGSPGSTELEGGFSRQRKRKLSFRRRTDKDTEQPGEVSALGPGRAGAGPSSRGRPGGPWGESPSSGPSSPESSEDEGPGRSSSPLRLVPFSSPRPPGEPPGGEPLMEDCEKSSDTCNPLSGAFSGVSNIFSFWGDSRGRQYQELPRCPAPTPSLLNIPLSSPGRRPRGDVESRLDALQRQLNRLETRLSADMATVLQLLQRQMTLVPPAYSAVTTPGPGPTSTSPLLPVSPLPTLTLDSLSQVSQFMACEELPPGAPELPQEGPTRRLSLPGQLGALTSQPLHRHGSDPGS

bioavailability [1] [%]	EC50 [2] [nM]	MRT [3] [h]	Vd [4] [L/kg]	EC50 [5] [nM]	Compound	further results
6.7	3.8	0.74	3.2	41	Cc1nc(-c2ccc(C(F)(F)F)cc2)sc1COc1ccc([C@H](CC(=O)O)c2nnnn2C)cc1	
		3.6	1.5	65	Cc1nc(-c2ccc(C(F)(F)F)cc2)sc1COc1ccc([C@H](CC(=O)O)c2ncnn2C)cc1	
84		10	0.58		CC#C[C@@H](CC(=O)O)c1ccc(OCc2cccc(-c3ccc(C(F)(F)F)cc3)c2)cc1	
	16	3.7	0.64	73	Cc1nc(-c2ccc(C(F)(F)F)cc2)sc1COc1ccc([C@H](CC(=O)O)c2nccn2C)cc1	
				36	CC#C[C@@H](CC(=O)O)c1ccc(OCc2cccc(-c3ccc(Cl)cc3C)c2)cc1	

The next lines start with the molecule.

Compound	bioavailability [1] [%]	EC50 [2] [nM]	MRT [3] [h]	Vd [4] [L/kg]	EC50 [5] [nM]	further results
Cc1nc(-c2ccc(C(F)(F)F)cc2)sc1COc1ccc([C@H](CC(=O)O)c2ncco2)cc1					69	
Cc1cc(Cl)ccc1-c1cccc(COc2ccc([C@H](CC(=O)O)c3ncnn3C)cc2)c1	18	11	2.5	3.5	33	
Cc1cc(Cl)ccc1-c1cccc(COc2ccc([C@H](CC(=O)O)c3nccn3C)cc2)c1	48	7.6	2.4	0.73	33	clearance [6]: 5.17 mL/min/kg
Cc1cc(Cl)ccc1-c1cccc(COc2ccc([C@H](CC(=O)O)c3nnnn3C)cc2)c1	53	1.3	5.2	14.3	12	
Cc1nc(-c2ccc(C(F)(F)F)cc2)sc1COc1ccc([C@H](CC(=O)O)c2cnco2)cc1		9			57	
Cc1nc(-c2ccc(C(F)(F)F)cc2)sc1COc1ccc([C@H](CC(=O)O)c2ccon2)cc1	77	3.6		0.68	36	EC50 (Islets of langerhans): 55 nM; Cp(f) (Plasma): 8 nM; inhibition (Mus musculus [7]): Active; Kp at 3 h [8]: 0.02; half-life [9]: 840 min; bioavailability [10]: 100%; concentration at 4 h [11]: 2000 nM; Vd [12]: 0.35 L/kg; bioavailability [13]: 65%; half-life [14]: 336 min; Vd [15]: 0.6 L/kg; half-life [16]: 318 min; inhibition (INH) [17]: Not Active; inhibition (INH) [18]: Not Active; inhibition in vivo at 10 mg/kg (Mus musculus [19]): 19%; Activity [20]: Not Active

From ChEMBL document CHEMBL3286293, “Optimization of GPR40 Agonists for Type 2 Diabetes” (ACS Med Chem Lett, 2014)
